Assay results taken from patent US20230147129A1, “COMPOUNDS FOR USE IN THE TREATMENT OF SYNUCLEINOPATHIES” (SOM INNOVATION BIOTECH, S.A., priority 2020, published 2023).

Tests used:
α-synuclein [1] = biological target: T1, α-synuclein (Homo sapiens, UniProt P37840); experiment: Light scattering of α-synuclein aggregates at end-point (48 h); assay type: biochemical; conditions: 48 h end-point; for Effect on aggregation measured by light scattering at 300 and 340 nm (in words): FIG. 2A and 2B; for Normalized light scattering value at 300 nm: normalised to control = 1, excitation 300 nm; for Normalized light scattering value at 340 nm: normalised to control = 1, excitation 340 nm
Description: Total aggregate formation at 48 h was measured by light scattering adding 80 μL of pre-aggregated α-synuclein into a quartz cuvette. Samples were previously re-suspended by carefully vortexing and pipetting, and then excited at 300 and 340 nm and 90° scattering collected between 280 to 360 nm. These measurements were performed in a Cary Eclipse Fluorescence Spectrophotometer (Agilent, Santa Clara, Calif., USA).

α-synuclein [2] = biological target: T1, α-synuclein; experiment: Thioflavin-T assay of α-synuclein aggregation kinetics; assay type: biochemical; conditions: 100 μM compound, FIG. 1A and 1B
Description: Lyophilized α-synuclein was dissolved in PBS (phosphate buffer solution) to a final solution of 210 μM and filtered through a Millipore 0.22 μm filter. α-synuclein aggregation was performed in a 96-well plate (non-treated, black plastic), each well containing a Teflon® polyball ⅛″ diameter (Polysciences Europe GmbH, Eppelheim, Germany), 40 μM Thioflavin-T (Th-T), 70 μM α-synuclein, 100 μM of the compounds to be tested and PBS up to a final volume of 150 μL. The plates were fixed into an orbital culture shaker Max-Q 4000 (Thermo Scientific, Waltham, Mass., USA) to keep the incubation at 37° C., 100 rpm. Every, 2 h, the fluorescence intensity was measured using a Victor 3.0 Multilabel Reader (PerkinElmer, Waltham, Mass., USA), by exciting the mixtures with 430-450 nm filter and collecting the emission intensity with 480-510 nm filter. Each measurement was performed in triplicates.
Each plate contained three (3) α-synuclein controls in the absence of any of the tested compounds. The averaged Th-T fluorescence obtained for these wells at the end of the experience was normalized to 1, and the kinetic curves in the different wells re-scaled accordingly. After compiling the fluorescence signals, means and standard error of mean (SEM) were used to fit the aggregation kinetic with equation (1),
wherein k^b and k^a indicate the homogeneous nucleation rate constant and the secondary rate constant, accounting for fibril elongation and secondary nucleation, respectively.
Re-scaled curves were used to compare the controls with the effect of the compounds and to ensure that the controls were reproducible between different experiments.

[3] = test system: primary culture of dopaminergic neurons injured with a mitochondrial toxin (MPP+); experiment: Neuroprotection in primary culture of dopaminergic neurons injured with MPP+; assay type: cell-based, rat; conditions: compounds 10 nM to 10 μM, pre-incubated 1 or 4 hours, MPP+ 4 μM for 48 hours, FIG. 16-20
Description: The efficacy of 5 compounds was assessed in a primary culture of dopaminergic neurons injured with a mitochondrial toxin (MPP+), which is often used to experimentally mimic the pathology of Parkinson disease (FIG. 16 to 20).
To obtain rat dopaminergic neurons, pregnant female rats (Wistar, Janvier Labs, France) of 15 days of gestation were killed using a deep anesthesia in a CO2 chamber followed by a cervical dislocation. Midbrains obtained from 15-day-old rat embryos were dissected under microscope and placed in ice-cold medium of Leibovitz (L15) containing 2% of Penicillin-Streptomycin (PS) and 1% of bovine serum albumin (BSA). The ventral portion of the mesencephalic flexure, a region of the developing brain rich in dopaminergic neurons, was used for the cell preparations.
The midbrains were dissociated by trypsinization for 20 min at 37° C. (solution at a final concentration of 0.05% trypsin and 0.02% EDTA). The reaction was stopped by adding Dulbecco's modified Eagle's medium (DMEM) containing DNAase I grade II (0.5 mg/mL) and 10% of fetal calf serum (FCS). Cells were then mechanically dissociated by 3 passages through a 10 ml pipette. […] The supernatant was discarded and the cell pellet was re-suspended in a defined culture serum-free medium consisting of Neurobasal (Invitrogen) supplemented with B27 (2%), L-glutamine (2 mM) and 2% of PS solution and 10 ng/ml of Brain-derived neurotrophic factor (BDNF) and 1 ng/mL of Glial-Derived Neurotrophic Factor (GDNF). Viable cells were counted in a Neubauer cytometer using the trypan blue exclusion test.
Half of the medium was changed every 2 days with fresh medium. On 96-wells plates, only 60 wells were used, the first columns and first lines were not used to avoid any edge effect, the empty wells were filled with sterile water.
Test compounds were tested on culture in 96-well plates (n=6 culture wells per condition).
Vehicle: Culture medium (0.1% DMSO).
Pre-incubation: On day 6 of culture, the compounds (from 10 nM to 10 μM) were dissolved in DMSO and then in culture medium, and were pre-incubated with primary dopaminergic neurons for 1 hour or 4 hours before the application of MPP+.
Injury: One or four hours after the application of the test compounds, MPP+ was added to a final concentration of 4 μM, diluted in control medium still in presence of compounds for 48 hours.
48 hours after the intoxication, the cell culture supernatant was removed, and the cells were fixed by a solution of 4% paraformaldehyde in PBS, pH=7.3 for 20 min at room temperature. The cells were washed twice in PBS, and then permeabilized. Non-specific sites were blocked with a solution of PBS containing 0.1% saponin and 1% FCS for 15 min at room temperature.
Immunostaining: TH and α-syn
The cultures were incubated with: • A monoclonal anti-Tyrosine Hydroxylase (TH) antibody produced in mouse at dilution of 1/10000 in PBS containing 1% FCS, 0.1% saponin, for 2 hours at room temperature. • a polyclonal anti-alpha synuclein (α-syn) antibody produced in rabbit at dilution of 1/200 in PBS containing 1% FCS, 0.1% saponin, for 2 hours at room temperature.
For each condition, 20 (for the TH survival and α-syn readouts) pictures representing the whole well area, were automatically taken using ImageXpress® (Molecular Devices) at 10× magnification (20 pictures, for TH and α-syn into TH neurons) using the same acquisition parameters. From images, analyses were directly and automatically performed by Custom Module Editor® (Molecular Devices). The following read-outs were measured: • Analysis of total number of THneurons (TH positive neurons), • total length of neurite network of TH positive neurons (in μm), • α-syn aggregation (overlapping between TH and α-syn staining),
Results are expressed in percentage of control. All values show the mean+/−SEM (standard error of the mean) from 4-6 wells per condition.

Structure (SMILES)	Effect on aggregation measured by light scattering at 300 and 340 nm (in words) (α-synuclein [1])	Normalized light scattering value at 300 nm (α-synuclein [1])	Normalized light scattering value at 340 nm (α-synuclein [1])	Inhibition of Th-T fluorescence / fibril formation (in words) (α-synuclein [2])	Loss of dopaminergic neurons (TH number) after MPP+ (in words) [3]	α-syn aggregation (ratio a-syn area/TH number) triggered by MPP+ (in words) [3]
Nc1nc(=O)c2ncn([C@H]3C=C[C@@H](CO)C3)c2[nH]1 [(−)-Carbovir, 2-amino-9-[(1R,4S)-4-(hydroxymethyl)cyclopent-2-en-1-yl]-1H-purin-6-one]	reduced absorbance at both length waves	0.72 ± 0.08	0.77 ± 0.09	more modest inhibition of fibril formation	–	–
Cn1ncc(Cl)c1-c1cc(C(=O)N[C@H](CN)Cc2cccc(F)c2)sc1Cl [Afuresertib, N-[(2S)-1-amino-3-(3-fluorophenyl)propan-2-yl]-5-chloro-4-(4-chloro-1-methyl-1H-pyrazol-5-yl)thiophene-2-carboxamide]	reduced absorbance at both length waves	0.44 ± 0.08	0.62 ± 0.09	potent inhibitors	partially prevented the loss of dopaminergic neurons	decreased α-syn aggregation
O=C(c1ccccc1)N1CCN=C1Nc1c(Cl)cccc1Cl [Benclonidine, [2-(2,6-dichloroanilino)-4,5-dihydroimidazol-1-yl]-phenylmethanone]	–	0.95 ± 0.07	0.98 ± 0.07	potent inhibitors	partially prevented the loss of dopaminergic neurons	decreased α-syn aggregation
C[C@@H](NCCCc1cccc(C(F)(F)F)c1)c1cccc2ccccc12 [Cinacalcet, N-[(1R)-1-(1-naphthyl)ethyl]-3-[3-(trifluoromethyl)phenyl]propan-1-amine]	significant reduction of the absorbance	0.44 ± 0.17	0.48 ± 0.18	–	–	–
N=C(N)NCC1COC2(CCCCC2)O1 (centres unmarked) [Guanadrel, 2-(1,4-dioxaspiro[4.5]decan-2-ylmethyl)guanidine]	reduced absorbance at both length waves	0.68 ± 0.06	0.68 ± 0.06	more modest inhibition of fibril formation	partially prevented the loss of dopaminergic neurons	decreased α-syn aggregation
N=C(N)NC(=O)Cc1c(Cl)cccc1Cl [Guanfacine, N-(diaminomethylidene)-2-(2,6-dichlorophenyl)acetamide]	significant reduction of the absorbance	0.65 ± 0.10	0.68 ± 0.10	more modest inhibition	partially prevented the loss of dopaminergic neurons	decreased α-syn aggregation
CC(CCc1ccc2c(c1)OCO2)NCC(O)c1ccc(O)c(C(N)=O)c1 (centres unmarked) [Medroxalol, 5-[2-[[3-(1,3-Benzodioxol-5-yl)-1-methylpropyl]amino]-1-hydroxyethyl]-2-hydroxybenzamide]	reduced absorbance at both length waves	0.72 ± 0.03	0.75 ± 0.04	more modest inhibition of fibril formation	–	–
CCCOc1ccc2[nH]c(NC(=O)OC)nc2c1 [Oxibendazole, Methyl N-(6-propoxy-1H-benzimidazol-2-yl) carbamate]	significant reduction of the absorbance	0.13 ± 0.02	0.51 ± 0.10	–	–	–
N=C(NN=Cc1ccc(Cl)cc1)NN=Cc1ccc(Cl)cc1 [Robenidine, 1,2-bis[(4-chlorophenyl)methylideneamino]guanidine]	significant reduction of the absorbance	0.31 ± 0.03	0.31 ± 0.02	–	–	–
Cc1ccnc(NS(=O)(=O)c2ccc(N)cc2)n1 [Sulfamerazine, 4-amino-N-(4-methylpyrimidin-2-yl)benzenesulfonamide]	reduced absorbance at both length waves	0.55 ± 0.10	0.78 ± 0.14	potent inhibitors	–	–
